System: HESC (hES2) co-cultured with END-2 cells
Experiment: HESC-END-2 co-culture, scoring of beating areas
Format: cell-based, human
Conditions: 10^−4 M ascorbic acid, serum-free HESC-END-2 co-culture, day 12, 12-well plates, n=6
Procedure: END-2 cells and HESC lines hES2, hES3 and hES4 cells (passage number between 41-84) were cultured as described previously in Reubinoff B E, Pera M F, Fong C Y et al. Embryonic stem cell lines from human blastocysts: somatic differentiation in vitro. Nat Biotechnol 2000; 18:399-404 and Mummery C, Ward-van Oostwaard D, Doevendans P et al. Differentiation of human embryonic stem cells to cardiomyocytes: role of coculture with visceral endoderm-like cells. Circulation 2003; 107:2733-2740. To initiate co-cultures, END-2 cell cultures, treated for 3 hr with mitomycin C (mit.C; 10 μg/ml), replaced mouse embryonic fibroblasts (MEFs) as feeders for hES cells (Mummery et al (2003) and Mummery C L, van Achterberg T A, van den Eijnden-van Raaij A J et al. Visceral-endoderm-like cell lines induce differentiation of murine P19 embryonal carcinoma cells. Differentiation 1991; 46:51-60). As a control HESC were also grown on MEFs for the same period under the same culture conditions. In standard co-cultures, cells were grown in 12-well plates in DMEM containing L-glutamine, insulin-transferrin-selenium, non-essential amino acids, 90 μM β-mercaptoethanol, penicillin/streptomycin, and 20% FCS (Multicell, Wisent Inc, Canada). Co-cultures were then grown for up to 3 weeks and scored for the presence of areas of beating muscle from 5 days onwards. […]

## O=C1O[C@H]([C@@H](O)CO)C(O)=C1O [ascorbic acid]
  increase in the number of beating areas compared to untreated serum-free co-cultures: 40%

— patent US20080254003A1, “Differentiation of Human Embryonic Stem Cells and Cardiomyocytes and Cardiomyocyte Progenitors Derived Therefrom” (priority 2004, published 2008)
